From patent publication US4318916A, “Antibiotic PS-5 and derivatives having β-lactamase inhibitory activity and production thereof” (Sanraku-Ocean Co., Ltd., priority 1977, dated 1982)
Converted amounts (≈) assume the structure as drawn. Like-named read-outs stand apart in the source and are kept apart here.

How the values were obtained:
Assay in all cases: MIC by broth dilution (Table 8)
Format in all cases: cell-based
[1] = tested on: Staphylococcus aureus Russell; conditions: 20 h, read-out: Minimum inhibitory concentration
Experimental: (§1) The MIC values of antibiotic PS-5 sodium salt were determined on various pathogenic microorganisms including resistant strains by the broth dilution method utilizing the BRAIN HEART INFUSION BROTH `Eiken` (EIKEN CHEMICAL CO., LTD.).
(§2) The antibiotic PS-5 sodium salt was dissolved in BRAIN HEART INFUSION BROTH `Eiken` (EIKEN CHEMICAL CO., LTD.) (pH 7.0) at concentration in the range of 5-50 μg/ml, from which appropriate dilution series were made in the same liquid medium. The microorganisms listed in Table 8 were cultivated for 18 hours in BRAIN HEART INFUSION BROTH `Eiken` at 28° C. and inoculated into the said dilution series of antibiotic PS-5 at a final inoculum size of 1×10^5 cells/ml. The cultures were allowed to stand at 35° C. for 20 hours, and then the growth of the microorganisms was read at each dilution of antibiotic PS-5. The minimum inhibitory concentration (MIC) represents the smallest concentration of the antibiotic PS-5 (sodium salt) where no propagation of the relevant microorganism was visually confirmed. As the controls, two known beta-lactam antibiotics, cephaloridine and cefoxitin were dissolved in brain heart infustion broth at pH 7.0 at concentrations ranging from 1 μg/ml to 100 μ g/ml and then diluted to make several dilution series in the above mentioned liquid medium. These samples were treated as described above for the MIC determinations. In addition to the MIC values of antibiotic PS-5, those of cephaloridine and cefoxitin are included for reference.

Proteus vulgaris P-5 = conditions: P5, 20 h, betalactamase producer, read-out: Minimum inhibitory concentration
Experimental: as §1, §2

Serratia marcescens S-18 = conditions: S18, 20 h, betalactamase producer, read-out: Minimum inhibitory concentration
Experimental: as §1, §2

Citrobacter freundii E-9 = conditions: E9, 20 h, read-out: Minimum inhibitory concentration
Experimental: as §1, §2

[2] = tested on: Enterobacter cloacae E-16; conditions: E16, 20 h, betalactamase producer, read-out: Minimum inhibitory concentration
Experimental: as §1, §2

Proteus sp. P-22 = conditions: 20 h, read-out: Minimum inhibitory concentration
Experimental: as §1, §2

[3] = tested on: Alcaligenes faecalis B-326; conditions: B326, 20 h, read-out: Minimum inhibitory concentration
Experimental: as §1, §2

[4] = tested on: Klebsiella pneumoniae K-2; conditions: K2, 20 h, betalactamase producer, read-out: Minimum inhibitory concentration
Experimental: as §1, §2

Providencia sp. P-8 = conditions: SP.P8, 20 h, resistant to kanamycin, gentamicin and tobramycin, read-out: Minimum inhibitory concentration
Experimental: as §1, §2

Proteus mirabilis P-6 = conditions: P6, 20 h, resistant to kanamycin, gentamicin and tobramycin, read-out: Minimum inhibitory concentration
Experimental: as §1, §2

Proteus rettgeri P-7 = conditions: Providencia rettgeri, P7, 20 h, resistant to gentamicin and tobramycin, read-out: Minimum inhibitory concentration
Experimental: as §1, §2

Enterobacter sp. E-8 = conditions: SP.E8, 20 h, read-out: Minimum inhibitory concentration
Experimental: as §1, §2

Escherichia coli K 12 = conditions: K12, 20 h, read-out: Minimum inhibitory concentration
Experimental: as §1, §2

[5] = tested on: Enterobacter aerogenes E-19; conditions: Klebsiella aerogenes, E19, 20 h, betalactamase producer, read-out: Minimum inhibitory concentration
Experimental: as §1, §2

[6] = tested on: Bacillus subtilis ATCC 6633; conditions: ATCC6633, 20 h, read-out: Minimum inhibitory concentration
Experimental: as §1
as §2, with “determinations.” for “determinations. In addition to the MIC values of antibiotic PS-5, those of cephaloridine and cefoxitin are included for reference.”

[7] = tested on: Staphylococcus aureus Smith; conditions: 20 h, read-out: Minimum inhibitory concentration
Experimental: as §1
as §2, with “determinations.” for “determinations. In addition to the MIC values of antibiotic PS-5, those of cephaloridine and cefoxitin are included for reference.”

[8] = tested on: Diplococcus pneumoniae Type III; conditions: Streptococcus pneumoniae, 20 h, read-out: Minimum inhibitory concentration
Experimental: as §1
as §2, with “determinations.” for “determinations. In addition to the MIC values of antibiotic PS-5, those of cephaloridine and cefoxitin are included for reference.”

[9] = tested on: Staphylococcus aureus Bx-1633; conditions: BX1633, 20 h, read-out: Minimum inhibitory concentration
Experimental: as §1
as §2, with “determinations.” for “determinations. In addition to the MIC values of antibiotic PS-5, those of cephaloridine and cefoxitin are included for reference.”

[10] = tested on: Staphylococcus aureus EDA 209 P; conditions: EDA209P, 20 h, read-out: Minimum inhibitory concentration
Experimental: as §1
as §2, with “determinations.” for “determinations. In addition to the MIC values of antibiotic PS-5, those of cephaloridine and cefoxitin are included for reference.”

[11] = tested on: Streptococcus pyogenes NY-5; conditions: NY5, 20 h, read-out: Minimum inhibitory concentration
Experimental: as §1
as §2, with “determinations.” for “determinations. In addition to the MIC values of antibiotic PS-5, those of cephaloridine and cefoxitin are included for reference.”

SMILES: CCC1C(=O)N2C(C(=O)O)=C(SCCNC(C)=O)CC12 (single isomer, unassigned) [Antibiotic PS-5]
- MIC ([1]; Staphylococcus aureus Russell, PS-5 as sodium salt): 0.31 µg/mL
- MIC (Proteus vulgaris P-5): 12.5 µg/mL (≈ 41.9 µM)
- MIC (Serratia marcescens S-18): 6.25 µg/mL (≈ 20.9 µM)
- MIC (Citrobacter freundii E-9; Citrobacter freundii E-9, betalactamase producer): 3.13 µg/mL (≈ 10.5 µM)
- MIC [2]: 12.5 µg/mL (≈ 41.9 µM)
- MIC (Proteus sp. P-22; Proteus sp. P-22): 6.25 µg/mL (≈ 20.9 µM)
- MIC ([3]; Alcaligenes faecalis B-326): 0.78 µg/mL (≈ 2.61 µM)
- MIC [4]: 3.13 µg/mL (≈ 10.5 µM)
- MIC (Providencia sp. P-8): 6.25 µg/mL (≈ 20.9 µM)
- MIC (Proteus mirabilis P-6): 6.25 µg/mL (≈ 20.9 µM)
- MIC (Proteus rettgeri P-7): 3.13 µg/mL (≈ 10.5 µM)
- MIC (Enterobacter sp. E-8; Enterobacter sp. E-8, betalactamase producer): 3.13 µg/mL (≈ 10.5 µM)
- MIC (Escherichia coli K 12; Escherichia coli K 12): 2.5 µg/mL (≈ 8.38 µM)
- MIC [5]: 6.25 µg/mL (≈ 20.9 µM)
- MIC ([6]; Bacillus subtilis ATCC 6633): 0.16 µg/mL (≈ 0.536 µM)
- MIC ([7]; Staphylococcus aureus Smith, PS-5 as sodium salt): 0.31 µg/mL
- MIC ([8]; Diplococcus pneumoniae Type III, 10% horse blood supplemented into the medium): 0.02 µg/mL (≈ 0.067 µM)
- MIC ([9]; Staphylococcus aureus Bx-1633, PS-5 as sodium salt): 0.16 µg/mL
- MIC ([10]; Staphylococcus aureus EDA 209 P, PS-5 as sodium salt): 0.16 µg/mL
- MIC ([11]; Streptococcus pyogenes NY-5, 10% horse blood supplemented into the medium): 0.08 µg/mL (≈ 0.268 µM)

SMILES: O=C(Cc1cccs1)N[C@@H]1C(=O)N2C(C(=O)[O-])=C(C[n+]3ccccc3)CS[C@H]12 [Cephaloridine, cephaloridine]
- MIC ([1]; Staphylococcus aureus): 0.125 µg/mL (≈ 0.301 µM)
- MIC (Proteus vulgaris P-5): > 100 µg/mL
- MIC (Serratia marcescens S-18): > 100 µg/mL
- MIC (Citrobacter freundii E-9; Citrobacter freundii): > 100 µg/mL
- MIC [2]: > 100 µg/mL
- MIC (Proteus sp. P-22): > 100 µg/mL
- MIC ([3]; Alcaligenes faecalis): 6.25 µg/mL (≈ 15 µM)
- MIC [4]: 6.25 µg/mL (≈ 15 µM)
- MIC (Providencia sp. P-8): > 100 µg/mL
- MIC (Proteus mirabilis P-6): 12.5 µg/mL (≈ 30.1 µM)
- MIC (Proteus rettgeri P-7): 100 µg/mL (≈ 241 µM)
- MIC (Enterobacter sp. E-8; Enterobacter): 3.13 µg/mL (≈ 7.53 µM)
- MIC (Escherichia coli K 12; Escherichia coli): 2.5 µg/mL (≈ 6.02 µM)
- MIC [5]: > 100 µg/mL
- MIC ([6]; Bacillus subtilis): 0.031 µg/mL (≈ 0.0746 µM)
- MIC ([7]; Staphylococcus aureus): 0.031 µg/mL (≈ 0.0746 µM)
- MIC [8]: 0.031 µg/mL (≈ 0.0746 µM)
- MIC ([9]; Staphylococcus aureus): 0.031 µg/mL (≈ 0.0746 µM)
- MIC ([10]; Staphylococcus aureus): 0.031 µg/mL (≈ 0.0746 µM)
- MIC ([11]; Streptococcus pyogenes): 0.008 µg/mL (≈ 0.0193 µM)
